Measured values from patent publication US10654890B2, “Cyclic peptide derivative, method for preparing same and composition thereof” (priority 2014, dated 2020).
Where a name gives a salt, the structure may show the parent alone.

How the values were obtained:
[1] = test system: senescence-accelerated model mouse SAMP8; assay: Step through passive avoidance test; assay type: in vivo
Description: As a mouse for an in vivo test of the cyclic peptide derivative, senescence-accelerated model mouse SAMP8 which is used as a cognitive disorder model animal of initial Alzheimer's disease accompanied with aging was selected, and as a control, SAMR1 mouse with normal aging was selected.
19-Week old male mice of SAMR1 and SAMP8 were purchased from Japan SLC, Inc., and divided into 5 groups, i.e., mouse group with normal aging (SAMR1), senescence-accelerated model mouse group (SAMP8), {P8+donepezil hydrochloride 1250 μg/kg/day} group as a positive control, and {P8+cyclic peptide derivative 2.5 μg/kg/day} group and {P8+cyclic peptide derivative 25 μg/kg/day} group as a test group. The animal was individually kept, i.e., one animal per cage, in a room with controlled environment {room temperature: 23±2° C., light and dark cycle: lighting time of 12 hours (time with light: 07:00 to 19:00), time without light: 12 hours}. The test was carried out in a time window of from 13:00 to 18:00 in an incubator with constant temperature and constant humidity (temperature 23±2° C., humidity 50±10%). After 10 days of an acclimation period, all mice were provided with standard meal (MEQ, Oriental Yeast Company) and body weight of the animal was recorded everyday during the entire test period. […]
(3) {P8+donepezil hydrochloride 1250 μg/kg/day} group: As a positive control, donepezil hydrochloride (Sanyo Chemical Laboratories CO., LTD.) was dissolved in MQ and prepared to have a concentration of 1250 μg/kg (bodyweight), and then orally administered to a SAMP8 for 5 weeks by using a gastric sonde. The concentration was accurately calculated based on the bodyweight which has been measured every day. […]
(4) {P8+cyclic peptide derivative 2.5 μg/kg/day} group: As a test group, the cyclic peptide derivative was dissolved in MQ and prepared to have a concentration of 2.5 μg/kg (bodyweight), and then orally administered to a SAMP8 for 5 weeks by using a gastric sonde. The concentration was accurately calculated based on the bodyweight which has been measured every day. […]

[2] = test system: senescence-accelerated model mouse SAMP8; assay: Coefficient of friction measurement test of body hair; assay type: in vivo
Description: Considering that the anti-aging effect for body hair and hair has been analyzed until now by using a senescence-accelerated model mouse (SAMP8) (Non Patent Literature 40), the inventors of the present invention also conducted an analysis regarding the anti-aging effect for body hair and hair for a senescence-accelerated model mouse administered with the cyclic peptide derivative by using a static and dynamic friction tester and a scanning probe microscope (SPM).
Coefficient of friction of animal hair and body hair is closely related to the state of cuticle as a scale-like tissue present on a surface of hair and body hair, and it is considered that the value of coefficient of friction (COF) increases as damages on cuticle of a hair and body hair increases (Non Patent Literature 40). It is also known that, when the damages on cuticle are high, moisture or nutrients of hair and body hair are lost from the damaged part of cuticle.
As for the apparatus, a handy rub tester TL701 (manufactured by Trinity-Lab Inc.), which is a static and dynamic friction tester, was used. […] Namely, the apparatus even allows measurement of friction on a surface of skin or materials which have a complex curved surface.
The contact member of a static and dynamic friction tester was closely pressed on body hair on forehead part of a mouse, and while applying a load of about 1 N, the member was moved, through an area between two ears, from the forehead to neck part of the mouse for about ten seconds, and the coefficient of friction (COF) was measured. The coefficient of friction (COF) was measured 5 to 10 times per mouse, and an average value thereof was calculated.

Row | SMILES | contextual learning ability (latency in post-shock trial) ([1]; SAMP8, oral 2.5 μg/kg/day) | contextual learning ability (latency in post-shock trial) ([1]; SAMP8, oral 25 μg/kg/day) | coefficient of friction (COF) of body hair ([2]; SAMP8, oral 2.5 μg/kg/day) | coefficient of friction (COF) of body hair ([2]; SAMP8, oral 25 μg/kg/day) | latency in post-shock trial ([1]; SAMP8, oral 1250 μg/kg/day, compared to SAMP8 not administered with anything, p<0.05) | coefficient of friction (COF) of body hair ([2]; SAMP8, oral donepezil hydrochloride 1250 μg/kg/day)
1 | CCC1(C)Oc2cc(ccc2O)C(O)C(NC)C(=O)NC(C(C)C)C(=O)NC1C(=O)NC(CCC(=O)O)C(=O)O (stereo not drawn) [cyclic peptide derivative] | recovered to the level of a mouse with normal aging | recovered to the level of a mouse with normal aging | lowered to the same level as those of a mouse with normal aging | lowered to the same level as those of a mouse with normal aging |  | 
2 | COc1cc2c(cc1OC)C(=O)C(CC1CCN(Cc3ccccc3)CC1)C2 (stereo not drawn) [donepezil hydrochloride, reference compound] |  |  |  |  | short latency in significant sense | the same level as that of the senescence-accelerated model mouse
